Eleven compounds from PubChem BioAssay (NCI) can be followed below.

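Protocol summary: plate cells (96-well), add compound at 5 concentrations, incubate 48 h, interpolate endpoints linearly. Definition used: TGI = concentration required for complete inhibition of growth.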 Some results are limits rather than exact numbers.

Assay in all cases: inhibition of tumour cell growth, NCI panel, 48 h
The subject of assay [1] is HL-60(TB) leukemia.
The test system of assay [2] is A549 NSCLC.
Assay [3] concerns SF-295 CNS.
The subject of assay [4] is SN12C renal.
The test system of assay [5] is SK-MEL-28 melanoma.
For assay [6], the system named is NCI-H522 lung.
The test system of assay [7] is SW-620 colon.
Assay [8] has as its system SR leukemia.
The test system of assay [9] is A498 renal.
Assay [10] concerns ACHN renal.
The subject of assay [11] is SNB-19 CNS.
Assay [12] relates to SK-OV-3 ovarian.
The test system of assay [13] is MCF7 breast.
In assay [14] the test system is PC-3 prostate.
Assay [15] deals with MDA-MB-435.
For assay [16], the system named is BT-549 breast.
Assay [17] deals with MDA-N.

Regarding `CCCP1(=O)C=C(C)C(=C(Cl)Cl)C(C)=C1` (stereo not drawn), the TGI is 54.7 µM in assay [1]; above 100 µM in assay [2]; above 100 µM in assay [3]; 66.7 µM in assay [4]; above 100 µM in [5]; 36.5 µM in assay [6]. In addition, the TGI in assay [7] is above 100 µM; in assay [8], 77.4 µM; in assay [9] it was above 100 µM; in assay [10], above 100 µM.

As to `O=c1[nH]cc(COCCCO)c(=O)[nH]1`, the TGI in assay [1], in assay [2], in assay [3], in assay [4], in assay [5] and in assay [11] was above 100 µM throughout. Also, the TGI in assay [6], in [7], in [12], in [8], in [9] and in [10] was above 100 µM in each case.

As for `CC1(C)OC(=O)C(C#N)=C1/C=C/c1coc2ccc(Cl)cc2c1=O`, the TGI was above 100 µM in [2]; above 100 µM in assay [3]; 96 µM in [4]; above 100 µM in [5]; above 100 µM in assay [11]; above 100 µM in assay [6]. Also, the TGI is above 100 µM in assay [7], 69.7 µM in [12] and above 100 µM in [8].

`CC(=O)C(CN(CC(C)C)CC(C)C)C(c1ccccc1)c1c(O)c2ccccc2oc1=O` (stereo not drawn): the TGI in [1], in [2], in assay [3], in [4], in assay [5] and in assay [11] was above 100 µM throughout. For the same compound, the TGI in assay [6], in [7], in [12], in assay [9] and in assay [10] was above 100 µM in each case.

As for `CCC(C=O)P1(=O)OC(C)(C)CN1C(C)(C)C` (stereo not drawn), the TGI in assay [13], in [14], in [2], in assay [3], in assay [15] and in assay [11] was above 100 µM in each case. Moreover, the TGI in assay [7], in [12], in assay [8], in [9], in assay [16] and in assay [10] was above 100 µM in each case.

Turning to `CN(N=O)C(=O)ON1C(=O)CCC1=O`, the TGI in assay [1], in [2], in assay [5], in assay [11], in assay [6] and in [7] was above 100 µM in each case. In addition, the TGI in assay [12], in [9] and in assay [10] was above 100 µM throughout.

With `COc1cccc(OC)c1C(=O)OCc1ccccc1`, the TGI in assay [1], in assay [2], in assay [3], in assay [4], in [5] and in [6] was above 100 µM throughout. In addition, the TGI in assay [7], in assay [12], in [8] and in assay [10] was above 100 µM each time.

Take `CN(C)c1ccc(NN=C2SC(=Nc3ccccc3)C(=Nc3ccccc3)S2)cc1`: the TGI in [1], in assay [14], in [2], in [3], in [4] and in [5] was above 100 µM in each case. In addition, the TGI in [15], in assay [11], in assay [6], in assay [7], in [12] and in [9] was above 100 µM in each case. Moreover, the TGI in assay [17] and in assay [10] was above 100 µM in each case.

On to `O=C(NC1CCCCC1NC(c1ccccc1)(c1ccccc1)c1ccccc1)C(=O)NC1CCCCC1NC(c1ccccc1)(c1ccccc1)c1ccccc1` (stereo not drawn), for which the TGI in [13], in assay [1], in assay [14], in assay [2], in [3] and in [4] was above 100 µM in each case. In addition, the TGI in [5] was above 100 µM; in assay [15], above 100 µM; in [11], above 100 µM; in assay [6], above 100 µM; in [7] it was above 100 µM; in assay [12], 92.8 µM. Moreover, the TGI in [8], in assay [9], in [16] and in [10] was above 100 µM in each case.

Take `Cc1ccc(/C=C/C(=O)C(C)(C)CN2CCCCC2)cc1`: the TGI in [2] amounted to 33.1 µM; in [3] it was 21.3 µM; in assay [4] it was 15.1 µM; in [5], 33.4 µM; in [11] it was 8.73 µM; in assay [6], 13.7 µM. In addition, the TGI in assay [7] was determined as 7.99 µM; in [12] it was 26.3 µM; in assay [9] it was 19.5 µM; in [10], 23.7 µM.

For `O=C(NNCC(O)COc1ccccc1)c1ccccc1` (stereo not drawn), the TGI in [13], in assay [1], in assay [14], in assay [2], in assay [3] and in [4] was above 100 µM throughout. The TGI in [5], in assay [15], in assay [11], in assay [6], in assay [7] and in assay [12] was above 100 µM in each case. Moreover, the TGI in assay [9], in assay [17] and in assay [10] was above 100 µM each time.
